From patent US20100247485A1, “FORMULATIONS AND DEVICES FOR […] TO […] MICR[…] ARTHOPODS” (MEVLABS, INC., priority 2007, published 2010)

Test system: Anopheles mosquitoe species
Experiment: Lethality of drug to Anopheles mosquitoes
Details: 7 μg/ml (estimated ED 50 of Pyremethamine)

CCc1nc(N)nc(N)c1-c1ccc(Cl)cc1 [Pyremethamine]
lethality to mosquitoes at the estimated ED50: not lethal
